Results published in ChEMBL document CHEMBL4321885, “Biomimetic Macrocyclic Inhibitors of Human Cathepsin D: Structure-Activity Relationship and Binding Mode Analysis” (J Med Chem, 2020).
Converted amounts (≈) assume the structure as drawn. The source made the active and inactive calls. The rule behind the calls is not given here.

Legend:
Cathepsin D = Cathepsin D (Homo sapiens, UniProt P07339); assay: Inhibition of human placenta CatD using Abz-Lys-Pro-Ala-Glu-Phe-Nph-Ala-Leu as substrate preincubated for 10 mins followed by substrate addition and measured by FRET assay
[1] = Solubility of the compound in pH 7.4 phosphate buffered saline by HPLC-MS analysis; assay type: physicochemical
NHDF = assay: Cytotoxicity against NHDF cells assessed as reduction in cell viability up to 100 uM measured after 72 hrs by Celltiter-glo assay; assay type: cell-based; details: human
PBMC = assay: Cytotoxicity against human PBMC cells assessed as reduction in cell viability up to 100 uM measured after 72 hrs by Celltiter-glo assay; assay type: cell-based
Renin (Homo sapiens) [2] = molecular target: T1, Renin (Homo sapiens) (UniProt P00797); assay: Inhibition of recombinant human N-terminal FLAG-tagged renin (67 to 406 residues) expressed in HEK cells at 50 nM using Arg-Glu(EDANS)-Ile-His-Pro-Phe-His-Leu-Val-Ile-His-Thr-Lys(Dabcyl)-Arg as substrate preincubated for 10 mins followed by substrate addition and measured by FRET assay
T1 sequence (whole entry): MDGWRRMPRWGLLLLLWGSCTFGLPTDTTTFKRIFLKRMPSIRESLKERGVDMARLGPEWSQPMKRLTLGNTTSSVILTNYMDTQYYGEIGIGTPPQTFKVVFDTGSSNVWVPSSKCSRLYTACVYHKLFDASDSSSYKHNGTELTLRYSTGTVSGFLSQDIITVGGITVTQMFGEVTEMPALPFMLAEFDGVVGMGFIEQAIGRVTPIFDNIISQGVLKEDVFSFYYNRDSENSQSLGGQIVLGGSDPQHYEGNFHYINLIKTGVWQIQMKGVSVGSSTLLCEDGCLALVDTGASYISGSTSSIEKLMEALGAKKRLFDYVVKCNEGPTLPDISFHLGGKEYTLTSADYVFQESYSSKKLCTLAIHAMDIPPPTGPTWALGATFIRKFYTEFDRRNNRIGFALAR

[3] = molecular target: Beta-secretase 1 (Homo sapiens) (UniProt P56817); assay: Inhibition of recombinant human C-terminal 10His-tagged BACE1 expressed in mouse NS0 cells at 50 nM using Mca-Ser-Glu-Val-Asn-Leu-Asp-Ala-Glu-Phe-Arg-Lys(Dnp)-Arg-Arg as substrate preincubated for 10 mins followed by substrate addition and measured by FRET assay
[4] = molecular target: Protease (Human immunodeficiency virus 1) (UniProt Q9YQ12); assay: Inhibition of HIV1 protease at 50 nM using Abz-Tyr-Ile-Nle-Nph-Gln-Arg as substrate preincubated for 10 mins followed by substrate addition and measured by FRET assay
Ixodes ricinus = assay: Inhibition of Ixodes ricinus CatD expressed in Escherichia coli BL21(DE3) at 50 nM using Abz-Lys-Pro-Ala-Glu-Phe-Nph-Ala-Leu as substrate preincubated for 10 mins followed by substrate addition and measured by FRET assay
[5] = molecular target: Saccharopepsin (Saccharomyces cerevisiae S288c) (UniProt P07267); assay: Inhibition of Baker's yeast proteinase A at 50 nM using Abz-Lys-Pro-Ala-Glu-Phe-Nph-Ala-Leu as substrate preincubated for 10 mins followed by substrate addition and measured by FRET assay
Papain = molecular target: T2, Papain (Carica papaya, UniProt P00784); assay: Stability of the compound assessed as papaya papain-mediated compound hydrolysis at 25 ug measured after 18 hrs by HPLC analysis; assay type: ADME
T2 sequence (P00784 whole entry): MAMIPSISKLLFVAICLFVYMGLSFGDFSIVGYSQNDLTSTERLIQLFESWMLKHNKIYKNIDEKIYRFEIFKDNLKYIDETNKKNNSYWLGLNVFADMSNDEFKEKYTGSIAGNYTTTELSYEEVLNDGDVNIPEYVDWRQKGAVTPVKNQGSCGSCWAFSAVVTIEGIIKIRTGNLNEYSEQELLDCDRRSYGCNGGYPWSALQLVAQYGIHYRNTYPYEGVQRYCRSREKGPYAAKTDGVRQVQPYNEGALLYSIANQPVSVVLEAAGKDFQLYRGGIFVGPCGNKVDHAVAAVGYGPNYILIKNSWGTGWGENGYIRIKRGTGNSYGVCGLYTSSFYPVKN

[6] = Stability of the compound assessed as bovine trypsin-mediated compound hydrolysis at 25 ug measured after 18 hrs by HPLC analysis; assay type: ADME, Bos taurus; details: cattle
[7] = Stability of the compound assessed as bovine chymotrypsin-mediated compound hydrolysis at 25 ug measured after 18 hrs by HPLC analysis; assay type: ADME, Bos taurus; details: cattle
Thermolysin = molecular target: T3, Thermolysin (Geobacillus stearothermophilus, UniProt P43133); assay: Stability of the compound assessed as Geobacillus stearothermophilus thermolysin-mediated compound hydrolysis at 25 ug measured after 18 hrs by HPLC analysis; assay type: ADME
T3 sequence (P43133 whole entry): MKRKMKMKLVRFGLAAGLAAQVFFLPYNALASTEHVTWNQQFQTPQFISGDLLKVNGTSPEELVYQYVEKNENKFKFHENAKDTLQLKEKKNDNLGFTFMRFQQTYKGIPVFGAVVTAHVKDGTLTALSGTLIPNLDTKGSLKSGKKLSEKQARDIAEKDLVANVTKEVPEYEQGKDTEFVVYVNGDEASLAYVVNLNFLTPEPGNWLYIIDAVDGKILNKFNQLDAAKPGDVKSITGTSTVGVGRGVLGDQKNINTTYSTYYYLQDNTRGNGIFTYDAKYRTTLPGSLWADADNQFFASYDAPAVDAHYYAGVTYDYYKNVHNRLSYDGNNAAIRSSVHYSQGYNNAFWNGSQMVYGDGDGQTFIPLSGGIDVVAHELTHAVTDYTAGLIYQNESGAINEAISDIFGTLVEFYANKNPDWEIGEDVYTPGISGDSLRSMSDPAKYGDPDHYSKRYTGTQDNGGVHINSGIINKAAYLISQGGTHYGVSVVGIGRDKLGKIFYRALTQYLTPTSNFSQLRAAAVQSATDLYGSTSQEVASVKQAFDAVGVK

Papain (Carica papaya) = molecular target: T4, Papain (Carica papaya) (UniProt P00784); assay: Inhibition of papaya papain at 1 uM using Z-Phe-Arg-AMC as substrate preincubated for 10 mins followed by substrate addition and measured after 20 mins by fluorescence assay
T4 sequence (whole entry): T2 sequence (P00784 whole entry)

Bos taurus [8] = species on record: Bos taurus; assay: Inhibition of bovine trypsin at 1 uM using Z-Phe-Arg-AMC as substrate preincubated for 10 mins followed by substrate addition and measured after 20 mins by fluorescence assay
Bos taurus [9] = species on record: Bos taurus; assay: Inhibition of bovine chymotrypsin at 1 uM using Z-Phe-Arg-AMC as substrate preincubated for 10 mins followed by substrate addition and measured after 20 mins by fluorescence assay
[10] = molecular target: T5, Thermolysin (Geobacillus stearothermophilus) (UniProt P43133); assay: Inhibition of Geobacillus stearothermophilus thermolysin at 1 uM using Abz-Ala-Gly-Leu-Ala-nitro-benzylamide as substrate preincubated for 10 mins followed by substrate addition and measured after 20 mins by fluorescence assay
T5 sequence (whole entry): T3 sequence (P43133 whole entry)

Renin (Homo sapiens) [11] = molecular target: T1, Renin (Homo sapiens); assay: Inhibition of recombinant human N-terminal FLAG-tagged renin (67 to 406 residues) expressed in HEK cells at 5 uM using Arg-Glu(EDANS)-Ile-His-Pro-Phe-His-Leu-Val-Ile-His-Thr-Lys(Dabcyl)-Arg as substrate preincubated for 10 mins followed by substrate addition and measured by FRET assay
[12] = molecular target: Beta-secretase 1 (Homo sapiens) (UniProt P56817); assay: Inhibition of recombinant human C-terminal 10His-tagged BACE1 expressed in mouse NS0 cells at 5 uM using Mca-Ser-Glu-Val-Asn-Leu-Asp-Ala-Glu-Phe-Arg-Lys(Dnp)-Arg-Arg as substrate preincubated for 10 mins followed by substrate addition and measured by FRET assay
[13] = molecular target: Protease (Human immunodeficiency virus 1) (UniProt Q9YQ12); assay: Inhibition of HIV1 protease at 5 uM using Abz-Tyr-Ile-Nle-Nph-Gln-Arg as substrate preincubated for 10 mins followed by substrate addition and measured by FRET assay
[14] = Apparent permeability in human Caco2 cells at 5 uM measured after 5 hrs by LC-MS analysis; assay type: ADME, cell-based; details: Caco-2
Sus scrofa = species on record: Sus scrofa; assay: Inhibition of porcine pepsin at 50 nM using Abz-Lys-Pro-Ala-Glu-Phe-Nph-Ala-Leu as substrate preincubated for 10 mins followed by substrate addition and measured by FRET assay

Sequence of Protease (Human immunodeficiency virus 1) (Q9YQ12 as listed by the source): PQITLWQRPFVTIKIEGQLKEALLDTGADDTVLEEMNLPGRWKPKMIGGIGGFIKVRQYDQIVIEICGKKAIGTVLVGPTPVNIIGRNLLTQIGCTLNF
Sequence of Saccharopepsin (Saccharomyces cerevisiae S288c) (P07267 whole entry): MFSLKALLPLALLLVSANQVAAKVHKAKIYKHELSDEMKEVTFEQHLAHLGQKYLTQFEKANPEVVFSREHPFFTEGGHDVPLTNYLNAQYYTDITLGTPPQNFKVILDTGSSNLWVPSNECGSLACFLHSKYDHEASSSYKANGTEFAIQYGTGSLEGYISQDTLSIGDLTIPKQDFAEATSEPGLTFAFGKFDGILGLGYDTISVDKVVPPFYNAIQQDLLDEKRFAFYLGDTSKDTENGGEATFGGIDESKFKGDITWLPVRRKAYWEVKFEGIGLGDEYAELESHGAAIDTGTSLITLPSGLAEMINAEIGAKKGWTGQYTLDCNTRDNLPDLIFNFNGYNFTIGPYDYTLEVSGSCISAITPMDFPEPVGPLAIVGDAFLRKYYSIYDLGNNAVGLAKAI
Sequence of Cathepsin D (P07339 65-162 limits assumed): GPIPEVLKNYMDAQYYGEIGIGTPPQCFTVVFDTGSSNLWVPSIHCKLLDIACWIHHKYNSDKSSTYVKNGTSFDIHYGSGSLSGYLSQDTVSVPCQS
Sequence of Cathepsin D (P07339 169-412 limits assumed): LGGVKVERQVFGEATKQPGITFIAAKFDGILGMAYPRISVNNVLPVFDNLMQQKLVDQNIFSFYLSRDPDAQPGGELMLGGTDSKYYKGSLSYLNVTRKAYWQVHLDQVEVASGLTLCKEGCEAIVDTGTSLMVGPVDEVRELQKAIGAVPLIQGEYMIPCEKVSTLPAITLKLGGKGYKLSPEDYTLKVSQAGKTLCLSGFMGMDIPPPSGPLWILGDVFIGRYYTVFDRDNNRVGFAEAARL
Sequence of Beta-secretase 1 (Homo sapiens) (P56817 whole entry): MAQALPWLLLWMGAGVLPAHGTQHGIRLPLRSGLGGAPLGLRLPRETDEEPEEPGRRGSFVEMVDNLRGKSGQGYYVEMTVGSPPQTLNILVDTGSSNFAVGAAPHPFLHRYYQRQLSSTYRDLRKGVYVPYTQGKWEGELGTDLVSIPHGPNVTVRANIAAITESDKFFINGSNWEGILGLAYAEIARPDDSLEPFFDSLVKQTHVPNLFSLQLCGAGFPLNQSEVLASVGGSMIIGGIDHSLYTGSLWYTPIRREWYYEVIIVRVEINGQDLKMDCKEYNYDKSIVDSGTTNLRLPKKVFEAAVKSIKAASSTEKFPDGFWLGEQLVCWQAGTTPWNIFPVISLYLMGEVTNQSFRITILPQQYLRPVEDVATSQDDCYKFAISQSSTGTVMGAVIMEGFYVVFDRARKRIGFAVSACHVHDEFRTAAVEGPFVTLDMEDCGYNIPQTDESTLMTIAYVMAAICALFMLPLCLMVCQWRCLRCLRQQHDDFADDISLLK

IC50 (Cathepsin D) | solubility [1] | inhibition (Renin (Homo sapiens) [2]) | inhibition [3] | inhibition [4] | inhibition (Ixodes ricinus) | inhibition [5] | Stability (Papain) | Stability [6] | Stability [7] | Stability (Thermolysin) | inhibition (Papain (Carica papaya)) | inhibition (Bos taurus [8]) | inhibition (Bos taurus [9]) | inhibition [10] | inhibition (Renin (Homo sapiens) [11]) | inhibition [12] | inhibition [13] | Structure (SMILES) | Activity (NHDF) | Activity (PBMC) | further results
1.1 nM | 342 µg/mL (≈ 637 µM) | inactive | inactive | inactive | Active | Active | Stable | Stable | Stable | Stable | inactive | inactive | inactive | inactive | Active | Active | Active | O=C1C[C@H](O)[C@H](Cc2ccccc2)NC(=O)CCCCCCCCCCCNC(=O)[C@H](Cc2cccnc2)N1 | Non-Toxic | Non-Toxic | –
– | 197 µg/mL (≈ 287 µM) | – | – | – | – | – | – | – | – | – | – | – | – | – | – | – | – | CC(C)CC(=O)N[C@H](C(=O)N[C@H](C(=O)N[C@@H](CC(C)C)[C@@H](O)CC(=O)N[C@@H](C)C(=O)N[C@@H](CC(C)C)[C@@H](O)CC(=O)O)C(C)C)C(C)C [PEPSTATIN] | Non-Toxic | Non-Toxic | Papp at 5 h, 5 µM [14]: 0.11 ×10⁻⁶ cm/s
190 nM | – | inactive | inactive | inactive | Active | Active | – | – | – | – | – | – | – | – | Active | Active | Active | CC(C)[C@@H]1NC(=O)C[C@H](O)[C@H](Cc2c[nH]c3ccccc23)NC(=O)CCCCCCCCCCCNC1=O | – | – | inhibition (Sus scrofa): Active
2.5 nM | – | inactive | inactive | inactive | Active | Active | Stable | Stable | Stable | Stable | inactive | inactive | inactive | inactive | Active | Active | Active | CC(C)[C@@H]1NC(=O)C[C@H](O)[C@H](Cc2ccccc2)NC(=O)OCCCCCCCCCCCNC1=O | Non-Toxic | Non-Toxic | Papp at 5 h, 5 µM [14]: 1.68 ×10⁻⁶ cm/s
